Key:
AXL kinase = target: T1, AXL kinase (Homo sapiens, UniProt P30530); assay: Inhibitory activity of compound against AXL kinase (HTRF KinEASE); type: biochemical; conditions: AXL enzyme (Carna, 08-107), ATP 15 μM; "<" means below detection limit of the test
T1 construct: purchased Carna 08-107
T1 sequence (P30530 473-894 limits assumed): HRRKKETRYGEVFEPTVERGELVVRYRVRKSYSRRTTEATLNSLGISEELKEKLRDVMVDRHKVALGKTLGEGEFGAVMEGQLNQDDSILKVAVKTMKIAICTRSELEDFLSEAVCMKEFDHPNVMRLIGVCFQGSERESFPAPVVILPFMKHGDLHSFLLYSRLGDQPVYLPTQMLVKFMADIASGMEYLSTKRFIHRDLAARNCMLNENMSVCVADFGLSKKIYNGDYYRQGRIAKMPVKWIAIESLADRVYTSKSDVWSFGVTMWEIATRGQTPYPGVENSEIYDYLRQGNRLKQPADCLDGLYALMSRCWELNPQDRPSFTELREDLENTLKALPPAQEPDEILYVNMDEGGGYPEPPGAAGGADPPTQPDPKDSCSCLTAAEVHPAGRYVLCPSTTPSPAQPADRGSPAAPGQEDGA
In short: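 AXL enzyme (final 0.016 ng/uL) was preincubated with compound (8 concentrations from 1 μM, ½ log steps) for 15 min at room temperature, then reacted with TK Substrate 3-biotin (final 1) and ATP (final 15 μM) for 45 min at 25° C. Phosphorylation was read by HTRF (TK antibody-cryptate, streptavidin-XL665, 1 h); IC50 from variable-slope dose-response fit.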

[1] = test system: MV-4-11 (human myeloid monocytic leukemia cell line); assay: Proliferation inhibition activity of compounds to MV-4-11 cells (CellTiter-Glo); type: cell-based; conditions: MV4-11 cells, 72 h dosing
Procedure: MV-4-11 (human myeloid monocytic leukemia cell line, culture medium: JIMDM+10% fetal bovine serum) is purchased from Cobioer Biosciences Co., Ltd and cultured in a 5% C02 incubator at 37° C. The cells in a logarithmic growth phase are plated in a 96-well plate at cell densities of 8000 cells/well, 6000 cells/well, 2000 cells/well, 2000 cells/well and 3000 cells/well, and a blank control group is set at the same time.
A compound to be tested and the positive drug are dissolved in dimethyl sulfoxide to prepare a 10 mM stock solution, which is then stored in −80° C. refrigerator for long-time storage. After the cells are plated for 24 h, the 10 mM compound stock solution is diluted with dimethyl sulfoxide to obtain a working solution having a 200-fold concentration (the highest concentration is 200 or 2000 μM, a 3-fold gradient, a total of 10 concentrations), and 3 μL of the working solution of each concentration is added to 197 μL of complete medium, and diluted into a working solution of 3-fold concentration. 50 μL of the working solution is then taken and added to a 100 μL cell culture medium (a final concentration of dimethyl sulfoxide is 0.5%, v/v), and two complex holes are set for each concentration. After 72 h of dosing treatment, 50 μl of CellTiter-Glo® (purchased from Promega) is added to each well. Fluorescence signals are measured on Envision (PerkinElmer) according to an operating procedure of the specification. GraphPad Prism 5 software log(inhibitor) vs. response-Variable slope is used to fit a dose-response curve, so as to obtain the IC50 value of the compound to the inhibition of cell-proliferation. The calculation formulation of the inhibition rate is as follows: […]
wherein: signal value of subject: a mean fluorescence signal of cell+medium+compound group; signal value of blank group: a mean fluorescence signal of medium group (containing 0.5% DMSO); signal value of negative control group: a mean fluorescence signal of cell+medium group (containing 0.5% DMSO).

IC50 (AXL kinase) [nM]	IC50 [1] [nM]	SMILES
0.62	3.23	Clc1cnc(Nc2ccc3c(c2)CC[C@@H](N2CCCC2)CC3)nc1Nc1ccccc1-c1ncn[nH]1 [Example 25, (S)—N^4-(2-(1H-1,2,4-triazol-5-yl)phenyl)-5-chloro-N^2-(7-(pyrrolidin-1-yl)-6,7,8,9-tetrahydro-5H-benzo[7]annulen-2-yl)pyrimidine-2,4-diamine]
0.34	3.23	O=C1NCc2cccc(Nc3nc(Nc4ccc5c(c4)CC[C@@H](N4CCCC4)CC5)ncc3Cl)c21 [Example 29, (S)-7-((5-chloro-2-(((7-(pyrrolidin-1-yl)-6,7,8,9-tetrahydro-5H-benzo[7]annulen-2-yl)amino))pyrimidin-4-yl)amino)isoindolin-1-one]
1.05	2.64	CS(=O)(=O)Nc1ccccc1Nc1nc(Nc2ccc3c(c2)CC[C@@H](N2CCCC2)CC3)ncc1Cl [Example 30, (S)—N-(2-((5-chloro-2-((7-(pyrrolidin-1-yl)-6,7,8,9-tetrahydro-5H-benzo[7]annulen-2-yl)amino)pyrimidin-4-yl)amino)phenyl)methanesulfonamide]
0.8	1.46	CNC(=O)c1ccccc1Nc1nc(Nc2ccc3c(c2)CCN(C2CCOCC2)CC3)ncc1Cl [Example 31, 2-((5-chloro-2-((3-(tetrahydro-2H-pyran-4-yl)-2,3,4,5-tetrahydro-1H-benzo[d]aza-7-yl)amino)pyrimidin-4-yl)amino)-N-methylbenzamide]
0.75	1.98	CNC(=O)c1ccccc1Nc1nc(Nc2ccc3c(c2)CCN(C2CCCC2)CC3)ncc1Cl [Example 32, 2-((5-chloro-2-((3-cyclopentyl-2,3,4,5-tetrahydro-1H-benzo(d)aza-7-yl)amino)pyrimidine-4-yl)amino)-N-methylbenzamide]
1.27	6.16	CNC(=O)c1cc(C#N)ccc1Nc1nc(Nc2ccc3c(c2)CC[C@@H](N2CCCC2)CC3)ncc1Cl [Example 34, (S)-2-((5-chloro-2-((7-(pyrrolidin-1-yl)-6,7,8,9-tetrahydro-5H-benzo[7]annulen-2-yl)amino)pyrimidin-4-yl)amino)-5-cyano-N-methylbenzamide]
0.36	5.12	CNC(=O)c1cc(Cl)ccc1Nc1nc(Nc2ccc3c(c2)CC[C@@H](N2CCCC2)CC3)ncc1Cl [Example 36, (S)-5-chloro-2-((5-chloro-2-((7-(pyrrolidin-1-yl)-6,7,8,9-tetrahydro-5H-benzo[7]annulen-2-yl)amino)pyrimidin-4-yl)amino)-N-methylbenzamide]
0.18	3.39	CNC(=O)c1cc(OC)ccc1Nc1nc(Nc2ccc3c(c2)CC[C@@H](N2CCCC2)CC3)ncc1Cl [Example 37, (S)-2-((5-chloro-2-(((7-(pyrrolidin-1-yl)-6,7,8,9-tetrahydro-5H-benzo[7]annulen-2-yl)amino))pyrimidin-4-yl)amino)-5-methoxyl-N-methylbenzamide]
2.59	6.4	O=C(NC1CCOC1)c1ccccc1Nc1nc(Nc2ccc3c(c2)CC[C@@H](N2CCCC2)CC3)ncc1Cl (stereo partly shown) [Example 39]
0.72	4.93	Clc1cnc(Nc2ccc3c(c2)CC[C@@H](N2CCCC2)CC3)nc1Nc1ccccc1CN1CCOCC1 [Example 40, (S)-5-chloro-N^4-(2-(morpholinmethyl)phenyl)-N^2-(7-(pyrrolidin-1-yl)-6,7,8,9-tetrahydro-5H-benzo[7]annulen-2-yl)pyrimidine-2,4-diamine]
2.08	4.28	O=S(=O)(Nc1ccccc1Nc1nc(Nc2ccc3c(c2)CC[C@@H](N2CCCC2)CC3)ncc1Cl)C1CC1 [Example 41, (S)—N-(2-((5-chloro-2-((7-(pyrrolidin-1-yl)-6,7,8,9-tetrahydro-5H-benzo[7]annulen-2-yl)amino)pyrimidin-4-yl)amino)phenyl)cyclopropanesulfonamide]
0.5	3.48	CNC(=O)c1cc(O)ccc1Nc1nc(Nc2ccc3c(c2)CC[C@@H](N2CCCC2)CC3)ncc1Cl [Example 45, (S)-2-((5-chloro-2-((7-(pyrrolidin-1-yl)-6,7,8,9-tetrahydro-5H-benzo[7]annulen-2-yl)amino)pyrimidin-4-yl)amino)-5-hydroxyl-N-methylbenzamide]
0.8	1.63	CNC(=O)c1cc(F)ccc1Nc1nc(Nc2ccc3c(c2)CCN(C2CCOCC2)CC3)ncc1Cl [Example 46, 2-((5-chloro-2-((3-(tetrahydro-2H-pyran-4-yl)-2,3,4,5-tetrahydro-1H-benzo[d]aza-7-yl)amino)pyrimidin-4-yl)amino)-5-fluoro-N-methylbenzamide]
9.85	8.3	CN1Cc2cccc(Nc3nc(Nc4ccc5c(c4)CCN(C4CCOCC4)CC5)ncc3Cl)c2C1=O [Example 49, 7-((5-chloro-2-((3-(tetrahydro-2H-pyran-4-yl)-2,3,4,5-tetrahydro-1H-benzo[d]aza-7-yl)amino)pyrimidin-4-yl)amino)-2-methylisoindolin-1-one]
2.38	7.1	CP(C)(=O)c1cc(O)ccc1Nc1nc(Nc2ccc3c(c2)CC[C@@H](N2CCCC2)CC3)ncc1Cl [Example 61, (S)-(2-((5-chloro-2-((7-(pyrrolidin-1-yl)-6,7,8,9-tetrahydro-5H-benzo[7]annulen-2-yl)amino)pyrimidin-4-yl)amino)-5-hydroxyphenyl)dimethyl phosphine oxide]
5.45	30.3	CP(C)(=O)c1cc(F)c(Cl)cc1Nc1nc(Nc2ccc3c(c2)CC[C@@H](N2CCCC2)CC3)ncc1Cl [Example 118, (S)-(4-chloro-2-((5-chloro-2-((7-(pyrrolidin-1-yl)-6,7,8,9-tetrahydro-5H-benzoannulen-2-yl)amino)pyrimidin-4-yl)amino)-5-fluorophenyl)dimethyl phosphine oxide]
0.85	3.63	COc1c(F)ccc(Nc2nc(Nc3ccc4c(c3)CC[C@@H](N3CCCC3)CC4)ncc2Cl)c1P(C)(C)=O [Example 134, (S)-(6-((5-chloro-2-((7-(pyrrolidin-1-yl)-6,7,8,9-tetrahydro-5H-benzo[7]annulen-2-yl)amino)pyrimidin-4-yl)amino)-3-fluoro-2-methoxyphenyl)dimethyl phosphine oxide]
1.35	4.23	Cc1c(F)ccc(Nc2nc(Nc3ccc4c(c3)CC[C@@H](N3CCCC3)CC4)ncc2Cl)c1P(C)(C)=O [Example 135, (S)-(6-((5-chloro-2-((7-(pyrrolidin-1-yl)-6,7,8,9-tetrahydro-5H-benzo[7]annulen-2-yl)amino)pyrimidin-4-yl)amino)-3-fluoro-2-methylphenyl)dimethyl phosphine oxide]
5.29	41.3	CC(C)(O)c1ccc(Nc2nc(Nc3ccc4c(c3)CC[C@@H](N3CCCC3)CC4)ncc2Cl)c(P(C)(C)=O)c1 [Example 138]
2.43	13.9	CP(C)(=O)c1cc(CO)ccc1Nc1nc(Nc2ccc3c(c2)CC[C@@H](N2CCCC2)CC3)ncc1Cl [Example 141, (S)-(2-((5-chloro-2-((7-(pyrrolidin-1-yl)-6,7,8,9-tetrahydro-5H-benzo[7]annulen-2-yl)amino)pyrimidin-4-yl)amino)-5-(hydroxymethyl)phenyl)dimethyl phosphine oxide]
